Laboratory results published in patent publication US8772500B2, “TRPV3 modulators” (AbbVie Inc., priority 2011, dated 2014).

Columns and labels:
human TRPV3 = target: T1, human TRPV3 (Homo sapiens, UniProt Q8NET8); assay: In vitro antagonism of recombinant human TRPV3 activation (FLIPR Tetra calcium assay, 2-APB as agonist); format: cell-based; conditions: HEK293 cells stably expressing human TRPV3; 2-APB 80 μM; range class; read-out: IC50 (reported range)
T1 construct: expressed in transfected cells
T1 sequence (Q8NET8 1-790): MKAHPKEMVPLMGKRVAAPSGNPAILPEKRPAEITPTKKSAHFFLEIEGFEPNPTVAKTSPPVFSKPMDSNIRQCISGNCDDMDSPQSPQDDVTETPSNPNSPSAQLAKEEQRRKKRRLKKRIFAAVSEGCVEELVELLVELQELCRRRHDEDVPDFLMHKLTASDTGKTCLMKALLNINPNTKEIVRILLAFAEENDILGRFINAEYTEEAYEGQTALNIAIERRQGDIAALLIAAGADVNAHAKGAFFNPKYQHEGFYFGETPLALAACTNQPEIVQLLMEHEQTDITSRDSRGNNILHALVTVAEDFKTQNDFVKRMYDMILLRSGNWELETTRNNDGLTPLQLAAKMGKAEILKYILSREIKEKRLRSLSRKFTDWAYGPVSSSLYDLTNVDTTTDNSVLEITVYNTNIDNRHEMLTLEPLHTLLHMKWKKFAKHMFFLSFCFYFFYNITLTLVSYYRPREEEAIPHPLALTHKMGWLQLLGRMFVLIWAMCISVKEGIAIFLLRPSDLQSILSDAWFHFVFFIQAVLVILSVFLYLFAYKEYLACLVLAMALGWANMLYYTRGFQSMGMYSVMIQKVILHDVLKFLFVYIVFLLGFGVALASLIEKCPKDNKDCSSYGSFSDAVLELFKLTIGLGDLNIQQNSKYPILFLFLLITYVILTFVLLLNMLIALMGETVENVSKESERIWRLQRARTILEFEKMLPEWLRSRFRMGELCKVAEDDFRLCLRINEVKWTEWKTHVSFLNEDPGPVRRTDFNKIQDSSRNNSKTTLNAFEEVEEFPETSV
Outline: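 Readout is FLIPR fluorescence, max minus min as percent of uninhibited 2-APB response, giving IC50 (usually mean of ≥2 runs). Stable human TRPV3 HEK293 cells, Calcium-4 dye-loaded, got test compound then, three minutes later, 80 μM 2-APB (EC80); run length 10 min.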

[1] = In vitro rat microsomal stability assay; format: in vitro ADME, rat (Sprague-Dawley); conditions: Sprague-Dawley, rat, 0.5 h, 0.5 μM, pH 7.4
Outline: (§1)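 Compounds were incubated at 37 °C with Sprague-Dawley rat liver microsomes (rat assay) or human liver microsomes (human assay) to measure metabolic stability. NADPH was added, including to the time-zero samples.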

[2] = In vitro human microsomal stability assay; format: in vitro ADME; conditions: human, 0.5 h, 0.5 μM, pH 7.4
Outline: as §1

IC50 (human TRPV3)	RAT MICROSOMAL STABILITY (% REMAINING AFTER 30 MINUTES) [1]	HUMAN MICROSOMAL STABILITY (% REMAINING AFTER 30 MINUTES) [2]	Compound
5.1 to 20 µM	74%	>85%	CC1(O)CC(c2ccc(OC(F)(F)F)cc2)(C(O)c2ccccn2)C1 [Example 203, trans-3-[(S)-hydroxy(pyridin-2-yl)methyl]-1-methyl-3-[4-(trifluoromethoxy)-phenyl]cyclobutanol]
1.1 to 5 µM	>85%	>85%	NC1CCCC1C(O)C1(c2cccc(C(F)(F)F)c2)CCC1 (stereo not drawn) [Example 204, (2-aminocyclopentyl){1-[3-(trifluoromethyl)phenyl]cyclobutyl}methanol]
1.1 to 5 µM	>85%	>85%	NC1CCCC1C(O)C1(c2ccc(C(F)(F)F)cc2)CCC1 (stereo not drawn) [Example 205, (2-aminocyclopentyl){1-[4-(trifluoromethyl)phenyl]cyclobutyl}methanol]
1.1 to 5 µM	62%	83%	NC1CCCC1C(O)C1(c2ccc(OC(F)(F)F)cc2)CCC1 (stereo not drawn) [Example 206, (2-aminocyclopentyl){1-[4-(trifluoromethoxy)phenyl]cyclobutyl}methanol]

Further lines, the compound ahead of its results:

Compound	IC50 (human TRPV3)	RAT MICROSOMAL STABILITY (% REMAINING AFTER 30 MINUTES) [1]	HUMAN MICROSOMAL STABILITY (% REMAINING AFTER 30 MINUTES) [2]
OC(C1CCCc2cccnc21)C1(c2ccc(F)c(F)c2)CCC1 (stereo not drawn) [Example 169, (anti)-[1-(3,4-difluorophenyl)cyclobutyl][5,6,7,8-tetrahydroquinolin-8-yl]-methanol]	5.1 to 20 µM	<0.01%	<0.01%
OC(C1CCCc2cccnc21)C1(c2ccc(OC(F)(F)F)cc2)CCC1 (stereo not drawn) [Example 177, (anti)-5,6,7,8-tetrahydroquinolin-8-yl{1-[4-(trifluoromethoxy)phenyl]-cyclobutyl}methanol]	1.1 to 5 µM	<0.01%	0.12%
OC(C1CCCc2cccnc21)C1(c2cccc(C(F)(F)F)c2)CCC1 (stereo not drawn) [Example 179, (anti)-5,6,7,8-tetrahydroquinolin-8-yl{1-[3-(trifluoromethyl)phenyl]-cyclobutyl}methanol]	1.1 to 5 µM	<0.01%	<0.01%
OC(C1CCCc2cccnc21)C1(c2ccc(Cl)c(Cl)c2)CCC1 (stereo not drawn) [Example 181, (anti)-[1-(3,4-dichlorophenyl)cyclobutyl][5,6,7,8-tetrahydroquinolin-8-yl]-methanol]	1.1 to 5 µM	<0.01%	<0.01%
OC(C1CCCc2cccnc21)C1(c2ccc(C(F)(F)F)cc2)CCC1 (stereo not drawn) [Example 183, (anti)-5,6,7,8-tetrahydroquinolin-8-yl{1-[4-(trifluoromethyl)phenyl]-cyclobutyl}methanol]	1.1 to 5 µM	<0.01%	<0.01%
OC1CC(c2ccc(C(F)(F)F)cc2)(C(O)c2ccccn2)C1 [Example 200, cis-3-[(S)-hydroxy(pyridin-2-yl)methyl]-3-[4-(trifluoromethyl)phenyl]-cyclobutanol]	5.1 to 20 µM	>85%	>85%
OC1CC(c2ccc(C(F)(F)F)cc2)(C(O)c2ccccn2)C1 [Example 201, trans-3-[(S)-hydroxy(pyridin-2-yl)methyl]-3-[4-(trifluoromethyl)phenyl]-cyclobutanol]	5.1 to 20 µM	>85%	73%
OC(c1ccccn1)C1(c2ccc(OC(F)(F)F)cc2)CC2(C1)OCCO2 (stereo not drawn) [Example 202, pyridin-2-yl{2-[4-(trifluoromethoxy)phenyl]-5,8-dioxaspiro[3.4]oct-2-yl}-methanol]	5.1 to 20 µM	<0.01%	73%
